In PubChem BioAssay (NCI):
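1) Cells in 96-well plates. 2) Compound, 48 h, 5 concentrations. 3) Linear interpolation between surrounding doses. 4) Unreached endpoint = highest concentration. TGI is the concentration that stops growth completely.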

What was measured:
Experiment in all cases: DTP human tumour cell line panel, 48 h
A549 NSCLC = test system: A549 NSCLC
HT29 colon = test system: HT29 colon
OVCAR-4 ovarian = test system: OVCAR-4 ovarian
IGROV1 ovarian = test system: IGROV1 ovarian
HCT-15 colon = test system: HCT-15 colon
OVCAR-3 ovarian = test system: OVCAR-3 ovarian
HL-60(TB) leukemia = test system: HL-60(TB) leukemia
COLO 205 colon = test system: COLO 205 colon
SR leukemia = test system: SR leukemia
M19-MEL melanoma = test system: M19-MEL melanoma

| Compound | TGI (A549 NSCLC) [µM] | TGI (HT29 colon) [µM] | TGI (OVCAR-4 ovarian) [µM] | TGI (IGROV1 ovarian) [µM] | TGI (HCT-15 colon) [µM] | TGI (OVCAR-3 ovarian) [µM] | TGI (HL-60(TB) leukemia) [µM] | TGI (COLO 205 colon) [µM] | TGI (SR leukemia) [µM] | TGI (M19-MEL melanoma) [µM] |
| --- | --- | --- | --- | --- | --- | --- | --- | --- | --- | --- |
| Cc1cccc(C)c1N1C(=O)C(=O)C(c2nc3ccccc3s2)/C(=N/NC(=O)NN)C1=O (stereo not drawn) | > 100 | > 100 | > 100 | > 100 | > 100 | > 100 | > 100 | > 100 | > 100 | > 100 |
| CCCCCCCCCCCC1CC(=O)NCCCN(C)CCCCN(C)CCCN1C (stereo not drawn) | 3.16 | 2.97 | 3.12 | 3.22 | 3 | 3.07 | 5.32 | 3.03 | 0.605 | 3.24 |
| Cc1ccc2oc(=O)c(-c3ccccc3)nc2c1 | > 100 | > 100 | 75.2 |  | 96.9 | > 100 |  | 71.1 | > 100 | 64.8 |
| COc1ccc(-c2c(C3=NCCCN3)nnn2-c2ccc([N+](=O)[O-])cc2)cc1 | > 100 | > 100 | > 100 | > 100 | > 100 | > 100 | > 100 | > 100 | > 100 | > 100 |
| O=C1C2=C(CCC2)Nc2cccc3ncn1c23 | > 100 |  |  | > 100 | > 100 |  | > 100 | > 100 | > 100 | > 100 |
| CCOC(OC1=C(C#N)CCCC1)C(CC)[Se]c1ccccc1 (stereo not drawn) | > 100 | 73.6 | 43.2 | 74.1 | 33 | 54.6 | 42.9 | 40.6 | 31 | 48.7 |
| Cc1ccccc1/C=C/C(=O)c1ccccc1 | 65.1 | 47.7 | 33.2 | 62.1 | > 10 | 31 |  | 46.7 | > 100 | 61 |
| CC1(C)CC(=O)C(CC2C(=O)c3ccccc3C2=O)C(=O)C1 | > 100 | > 100 | > 100 | > 100 | > 100 | > 100 | > 100 | > 100 | > 100 | > 100 |
| O=c1[nH]c2cc([N+](=O)[O-])ccc2nc1/C(=N\Nc1ccccc1)C(O)c1ccc2c(c1)OCO2 (stereo not drawn) | > 100 | > 100 | > 100 | > 100 | 58.2 | > 100 | > 100 | > 100 | > 100 | > 100 |
| Cc1cccc(C)c1N1C(=O)C(=O)C(c2nc3ccccc3s2)C(=Nc2cccc3c(=O)[nH][nH]c(=O)c23)C1=O (stereo not drawn) | > 100 | > 100 | > 100 | > 100 | > 100 | > 100 | > 100 | > 100 | > 100 | > 100 |
| c1ccc2[nH]c(CNc3ccc(C4C[Se]N=N4)cc3)nc2c1 (stereo not drawn) | > 100 | > 100 | > 100 | > 100 | > 100 | 96.9 | 77.7 | > 100 | 36 | > 100 |
| O=S1CSSC1 | > 100 | 31.4 | 33.9 | 54.9 |  | 58.9 | 61.5 | 32 | 47.2 | 14.4 |
| COc1ccccc1NC(=O)/C(=C/c1ccccc1)C(C)=O | > 100 | > 100 | > 100 | > 100 | > 100 | > 100 | 57.3 |  | > 100 | > 100 |
| CCCCCCCCCCCCCCCCCCOCC(COCCOCC[N+]1(CCCCCC(=O)[O-])CCCC1)Oc1ncccn1 (stereo not drawn) | 20 | 13.7 | 4.22 | 3.83 | 25.5 | 20.4 | 2.6 | 3.77 | 37.1 | 1.33 |
| Cc1c(C)c(CC(=O)N2CC2)c(C)c(C)c1CC(=O)N1CC1 | 50.3 | > 75.1 | 44.8 | 43.2 | > 58.2 | 51.4 | 10.3 | 29.5 | 4.79 | 27.4 |
| N#Cc1c(-c2ccco2)cc(-c2ccccc2)[nH]c1=O | > 100 | > 100 | > 100 | > 100 | > 100 | > 100 | > 100 | > 100 | > 100 | > 100 |
| C=C1C(=O)C23C(O)C1CC[C@H]2C12CCCC(C)(COC(C)=O)[C@H]1[C@H](O)[C@]3(O)OC2 (stereo partly drawn) | 9.95 | 3.36 | 5.49 | 4.05 | 2.37 | 2.99 | 1.04 | 4.14 |  | 4.69 |
| Cn1c(=O)nc2n(-c3ccc(Cl)c(C(F)(F)F)c3)c3ccccc3nc-2c1=O | > 86.3 | 64.8 | 62.9 | > 100 | > 100 | > 100 | 46.2 | 49.9 |  | 27.8 |
| C[C@]12C/C(=C/O)C(=O)C(O)=C1CC[C@@H]1C2CC[C@@]2(C)C1CC[C@@H]2O (stereo partly drawn) | > 100 | 65.1 | 62.7 | 46 | 61.5 | 44.4 | 41.8 | 44.5 |  | 45.3 |
| CCCCCCC(C)CCCCCCCCCCC(=O)O (stereo not drawn) | > 100 | > 100 | > 100 | > 100 |  | > 100 | > 100 | > 100 | > 100 | > 100 |
| CN(C)C(=S)Nc1nnc(Nc2ccccc2)s1 | > 100 | > 100 | > 100 | > 100 | > 100 | > 100 | > 100 | > 100 | > 100 | > 100 |
| COc1ccc(C2Oc3c(c(O)cc4c3[C@H](c3ccc(O)cc3O)[C@H](O)C(c3ccc(O)c(O)c3)O4)C[C@@H]2O)cc1O (stereo partly drawn) | > 100 | > 100 | > 100 | > 100 | > 100 | > 100 | > 100 | > 100 | > 100 | > 100 |
